How the values were obtained:
osteoclasts = test: Osteoclast function, pit depths on dentine slices; type: cell-based, mouse
Protocol: To analyze the effect of the PI3Kδ inhibitor D-000 on osteoclasts, mouse bone marrow cells were isolated and differentiated them to osteoclasts by treating the cells with Macrophage Colony Stimulating Factor^−1 (mCSF^−1) and Osteoprotegerin Ligand (OPGL) in serum-containing medium (αMEM with 10% heat-inactivated FBS; Sigma) for 3 days. On day four, when the osteoclasts had developed, the medium was removed and cells were harvested. The osteoclasts were plated on dentine slices at 10^5 cells/well in growth medium, i.e., αMEM containing 1% serum and 2% BSA with […] and 10 ng/mL mCSF-1. After 3 hr, the medium was changed to 1% serum and 1% BSA, with or without osteopontin (25 μg/mL) and the PI3K inhibitors (100 nM). The medium was changed every 24 hours with fresh osteopontin and the inhibitors. At 72 hr, the medium was removed, and the dentine surfaces were washed with water to remove cell debris and stained with acid hematoxylin. Excess stain was washed and the pit depths were quantitated using confocal microscopy.

human neutrophils [1] = test: Superoxide production from neutrophils (cytochrome C reduction); type: cell-based
Protocol: Aliquots (8 mL) of heparinized blood from healthy volunteers were layered on 3 mL cushions of 7.3% FICOLL® (Sigma, St. Louis, Mo.) and 15.4% HYPAQUE® (Sigma) and centrifuged at 900 rpm for 30 min at room temperature in a table top centrifuge (Beckman). The neutrophil-rich band just above the FICOLL®-HYPAQUE® cushion was collected and washed with Hanks' balanced salt solution (HBSS) containing 0.1% gelatin. Residual erythrocytes were removed by hypotonic lysis with 0.2% NaCl. The neutrophil preparation was washed twice with HBSS containing 0.1% gelatin and used immediately.
Superoxide generation is one of the hallmarks of neutrophil activation. A variety of activators potentiate superoxide generation by neutrophils. The effect of the PI3Kδ inhibitor D-000 on superoxide generation by three different agonists: TNF1α, IgG, and fMLP, each representing separate classes of activator, was measured. Superoxide generated by the neutrophils was measured by monitoring the change in absorbance upon reduction of cytochrome C by modification of the method described by Green et al., (pp. 14.5.1-14.5.11 in Supp. 12, Curr Protocols Immunol (Eds., Colligan et al.) (1994)), as follows. Individual wells of a 96-well plate were coated overnight at 4° C. with 50 μL of 2 mg/mL solution of human fibrinogen or IgG. The wells were washed with PBS and the following reagents were added to each well: 50 μL of HBSS or superoxide dismutase (1 mg/mL), 50 μL of HBSS or TNF1α (50 ng/mL), 50 μL cytochrome C (2.7 mg/mL), and 100 μL of purified human neutrophil suspension ([…] cells/mL). The plate was centrifuged for 2 min at 200 rpm and absorbance at 550 nm was monitored for 2 hr. To measure the relative amounts of superoxide generated, values obtained from the superoxide dismutase-containing wells were subtracted from all, and normalized to the values obtained from the wells without any inhibitor.

MEG-01 = test: Cancer cell proliferation, [3H]-thymidine incorporation, MEG-01; type: cell-based; details: MEG-01 line; 0.001 μM to 20 μM
Protocol: (§1) The effect of compounds of the invention on cancer cell proliferation was evaluated by testing one of the compounds against a panel of Chronic Myeloid Leukemia (CML) cell lines, including KU812, RWLeu4, K562, and MEG-01.
(§2) The inhibitory activity of the compound (D-000, dissolved in DMSO) was determined as follows. The tested compound was added in a series of concentrations (0.001 μM to 20 μM) to 96-well microtiter plates with cells (1000 to 5000 cells/well). Plates were incubated for five days at 37° C. during which the control cultures without test compound were able to undergo at least two cell-division cycles. Cell growth was measured by incorporation of [^3H]-thymidine for eighteen hours added at days three, four, and five. Cells were transferred to a filter, washed and the radioactivity counted using a Matrix 96 beta counter (Packard). The percentage of cell growth was measured as follows: […]

RWLeu4 = test: Cancer cell proliferation, [3H]-thymidine incorporation, RWLeu4; type: cell-based; details: Homo sapiens, 120 h; RWLeu4 line; five days; read-out: EC50, inhibition of cell growth
Protocol: as §1, §2

human neutrophils [2] = test: Elastase exocytosis from neutrophils (fMLP-induced); type: cell-based; details: for EC50: neutrophil (PMN) elastase release
Procedure, shortened: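 Human blood neutrophils (Ficoll-Hypaque) treated with compound or DMSO, then stimulated 90 min at 37 °C with 1 μM fMLP plus 0.01 mg/mL cytochalasin B, 1.0 μM NaN3 and 5 μg/mL L-methionine. Supernatant elastase read at 410 nm over 2 h on MeO-suc-AAPV-pNA, normalized to uninhibited; EC50 in μM.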

For `O=c1c2ccccc2nc(CSc2ncnc3[nH]cnc23)n1-c1ccccc1Cl` [Compound D-000, 3-(2-chlorophenyl)-2-(9H-purin-6-ylsulfanylmethyl)-3H-quinazolin-4-one], the “Effect on osteoclast activity” value (osteoclasts; 100 nM) was “almost completely inhibited”, the “Pit depths (osteoclast activity), Table 1” value (osteoclasts; inhibitor 100 nM + osteopontin (OPN) 25 μg/mL, 72 hr, two experiments, OPN alone 10 ± 0.5 and 9 ± 0.4) was 1 and the IC50 (human neutrophils [1]; Homo sapiens, Neutrophil, TNF stimulus, FIG. 2, read-out: Concentration reducing TNF-induced superoxide generation to its half-maximal value) was about 3 µM. For the same compound, the “Effect on superoxide generation induced by IgG” value (human neutrophils [1]; IgG stimulus, at 10 μM, FIG. 2) was “did not have any effect”, the “Effect on fMLP-induced superoxide generation” value (human neutrophils [1]; fMLP stimulus, FIG. 3) was “inhibited” and the “Effect on cell growth” value (MEG-01) was “not found to exhibit an effect”. It also gave an EC50 (RWLeu4) of about 2 µM, an IC50 (human neutrophils [2]; Neutrophil, 1.5 h, 1 μM fMLP, 90 min, FIG. 4, read-out: Concentration of half-maximal inhibition of fMLP-induced elastase exocytosis) of 2 to 3 µM and an EC50 (human neutrophils [2]) of 2.2 ± 2 µM.
`O=c1c2c(F)cccc2nc(CSc2ncnc3[nH]cnc23)n1-c1ccccc1Cl` [Compound D-015, 3-(2-Chlorophenyl)-5-fluoro-2-(9H-purin-6-ylsulfanylmethyl)-3H-quinazolin-4-one] gave a melting point of 222.7 to 223.8 °C and an EC50 (human neutrophils [2]) of 1.3 ± 0.4 µM.
With `O=c1c2c(Cl)cccc2nc(CSc2ncnc3[nH]cnc23)n1-c1ccccc1Cl` [Compound D-025, 5-Chloro-3-(2-chlorophenyl)-2-(9H-purin-6-ylsulfanylmethyl)-3H-quinazolin-4-one] the melting point was 233.7 to 234.4 °C (dec.) and the EC50 (human neutrophils [2]) was 0.3 ± 0.2 µM.
`O=c1c2ccccc2nc(CSc2ncnc3[nH]ncc23)n1-c1ccccc1Cl` [Compound D-999, 3-(2-Chlorophenyl)-2-(1H-pyrazolo[3,4-d]pyrimidin-4-ylsulfanylmethyl)-3H-quinazolin-4-one, reference compound] gave an EC50 (human neutrophils [2]) of over 20 µM.
